In this test the test system is Radical scavenging activity. The test is described as follows: Antioxidant activity assessed as DPPH radical scavenging activity. Format: functional. (In general: The DPPH test is a chemical assay of radical scavenging.)

The source made the active and inactive calls. No cut-off for these calls is given here.

Take `O=C(O)C[C@@H]1C(=O)O[C@H]2[C@@H]3OC(=O)c4cc(O)c(O)c(O)c4-c4c(cc(O)c(O)c4O)C(=O)OC[C@H]2O[C@@H](OC(=O)c2cc(O)c(O)c(O)c2)[C@@H]3OC(=O)c2cc(O)c(O)c3c2[C@H]1[C@H](O)C(=O)O3`: the result was Active.
With `O=C(O)C[C@@H]1C(=O)O[C@H]2[C@@H]3OC(=O)c4cc(O)c(O)c(O)c4-c4c(cc(O)c(O)c4O)C(=O)OC[C@H]2O[C@@H](OC(=O)c2cc(O)c(O)c(O)c2)[C@@H]3OC(=O)c2cc(O)c(O)c3c2[C@H]1[C@@](O)(C(=O)O)O3` the entry was “Active”.

The values are drawn from ChEMBL document CHEMBL1156390, “Phyllanemblinins A-F, new ellagitannins from Phyllanthus emblica” (J Nat Prod, 2001).
